Several values for one entry are separate records, joined by “and”; a condition that tells them apart may be missing. Equal values may be shown once. Entries after “also recorded” stand apart in the source; their conditions may differ.
What was measured:
[1] = test system: taxane-resistant triple-negative breast cancer; assay: Tumor response, dose-expansion TNBC cohort; format: in vivo, human
Plasma pharmacokinetics = format: in vivo, human; settings: for AUC(0-t): 40 mg, Mean AUC24h, 40 mg once daily, dose expansion
[2] = test system: breast cancer cell lines with TP53 loss of function mutations; settings: cited from earlier work
[3] = test system: cell lines from a variety of tumor types including several that were resistant to paclitaxel; settings: preclinical; cited from earlier work
p-histone H3 = settings: not measured in this study; no reference given; cited from earlier work
[4] = test system: TNBC cell lines and xenografts; settings: in combination with ixabepilone; cited from earlier work
[5] = test system: taxane- and platinum-resistant ovarian cancer; assay: Tumor response, dose-expansion ovarian cancer cohort; format: in vivo, human
[6] = Central read, RECIST 1.1, expansion 40 mg + G-CSF, TNBC (n = 14)
[7] = Local read, RECIST 1.0, expansion 40 mg + G-CSF, TNBC (n = 14)
[8] = Central read, RECIST 1.1, expansion 40 mg + G-CSF, OC (n = 29)
[9] = GCIG criteria (RECIST 1.1 and CA 125), expansion 40 mg + G-CSF, OC (n = 29)
[10] = Local read, RECIST 1.0, expansion 40 mg + G-CSF, OC (n = 29)

## Cc1csc(-c2nnc(Nc3ccc(Oc4ncccc4-c4ccnc(N)n4)cc3)c3ccccc23)c1 [AMG 900]
[1]; 40 mg + G-CSF, RECIST 1.0 (local read)
  Tumor response, one patient with TNBC: partial response per RECIST 1.0 (local read) that was not confirmed per RECIST 1.1 (central read)
[1]; Central read, RECIST 1.1, Kaplan-Meier, expansion 40 mg + G-CSF, TNBC (n = 14)
  Progression-free survival, median (80% CI): 7.6 (4.1–23.6) weeks
[1]; [6]
  Best overall response: Complete response: 0 Patients (%)
  Best overall response: Not evaluable (postbaseline scan not readable): 3 (21) Patients (%)
  Best overall response: Partial response: 0 Patients (%)
  Best overall response: Progressive disease: 4 (29) Patients (%)
  Best overall response: Stable disease: 7 (50) Patients (%)
[1]; [7]
  Best overall response: Complete response: 0 Patients (%)
  Best overall response: Not evaluable (postbaseline scan not readable): 3 (21) Patients (%)
  Best overall response: Partial response: 1 (7) Patients (%)
  Best overall response: Progressive disease: 5 (36) Patients (%)
  Best overall response: Stable disease: 5 (36) Patients (%)
[1]; RECIST 1.1 (central read), TNBC
  Objective responses: No objective responses; also recorded: No patients with TNBC had an objective response
[1]; RECIST 1.1 (central read), TNBC (7 of 14)
  Died or had progressive disease: 50.0%
[1]; RECIST 1.1, TNBC (7 of 14)
  Stable disease as best overall tumor response: 50.0%
Plasma pharmacokinetics; cycle 1 day 1 to cycle 1 day 4, all dose cohorts
  Accumulation based on AUC8h: < 2 fold
Plasma pharmacokinetics; human, plasma, oral
  Tmax: 1 to 3 h
  half-life: 6 to 9 h
Plasma pharmacokinetics; human, plasma, oral, CRPC
  AUC(0-t): 7700 ng·h/mL
Plasma pharmacokinetics; human, plasma, oral, TNBC
  AUC(0-t): 10600 ng·h/mL
Plasma pharmacokinetics; human, plasma, oral, ovarian cancer cohort
  AUC(0-t): 12900 ng·h/mL
Plasma pharmacokinetics; oral, 1 to 50 mg
  Mean exposure (AUC24h) versus dose: increased as the dose increased
[2]
  Sensitivity to AMG 900 compared with cell lines without such mutations: greater sensitivity
[3]
  Proliferation of tumor cell lines: inhibited the proliferation
p-histone H3
  50% inhibitory concentration for the in vivo inhibition of p-histone H3: 273 ng/mL
[4]
  Growth of TNBC cell lines and xenografts: inhibited growth
[5]; Central read, RECIST 1.1, Kaplan-Meier, expansion 40 mg + G-CSF, OC (n = 29)
  Progression-free survival, median (80% CI): 31.7 (23.7–47.6) weeks
[5]; [8]
  Best overall response: Complete response: 0 Patients (%)
  Best overall response: Not evaluable (postbaseline scan not readable): 2 (7) Patients (%)
  Best overall response: Partial response: 3 (10) Patients (%)
  Best overall response: Progressive disease: 3 (10) Patients (%)
  Best overall response: Stable disease: 21 (72) Patients (%)
[5]; [9]
  Best overall response: Complete response: 0 Patients (%)
  Best overall response: Not evaluable (postbaseline scan not readable): 3 (10) Patients (%)
  Best overall response: Partial response: 7 (24) Patients (%)
  Best overall response: Progressive disease: 3 (10) Patients (%)
  Best overall response: Stable disease: 16 (55) Patients (%)
[5]; GCIG criteria (RECIST 1.1 and CA 125), expansion ovarian cancer (7 of 29)
  Partial response: 24.1%
[5]; GCIG criteria (central read), expansion ovarian cancer, 95% CI 10.3%–43.5%
  Objective response rate (ORR): 24.1%
[5]; GCIG criteria, expansion ovarian cancer (3 of 29)
  Progressive disease: 10.3%
[5]; GCIG criteria, expansion ovarian cancer (16 of 29)
  Stable disease: 55.2%
[5]; Kaplan-Meier, ovarian cancer patients from dose-escalation (n = 4) and dose-expansion (n = 29)
  Median (80% CI) PFS: 34.1 (31.1–not estimable) weeks
[5]; [10]
  Best overall response: Complete response: 0 Patients (%)
  Best overall response: Not evaluable (postbaseline scan not readable): 2 (7) Patients (%)
  Best overall response: Partial response: 3 (10) Patients (%)
  Best overall response: Progressive disease: 4 (14) Patients (%)
  Best overall response: Stable disease: 20 (69) Patients (%)
[5]; RECIST 1.1, expansion ovarian cancer (3 of 29)
  Progressive disease: 10.3%
[5]; RECIST 1.1, expansion ovarian cancer (21 of 29)
  Stable disease as best response: 72.4%
[5]; RECIST 1.1, expansion ovarian cancer, 95% CI: 16.1–34.1
  Median duration of response: 24.1 weeks
[5]; RECIST 1.1 central read, expansion ovarian cancer, 95% CI 2.0%–28.0%
  Objective response rate (ORR): 10.3%
[5]; RECIST 1.1 central, expansion ovarian cancer (3 of 29)
  Partial response: 10.3%
[5]; by GCIG criteria, same three ovarian cancer patients
  Duration of partial response, individual patients: 16.1 weeks and 65.6 weeks and 74.9 weeks
[5]; by RECIST 1.1, three ovarian cancer patients
  Duration of partial response, individual patients: 34.1 weeks and 24.1 weeks and 16.1 weeks
